Calls of active or inactive are those of the source. No rule for the calls is given here.
Test system: CCRIS mutagenicity, Ames/micronucleus/aberration tests
Experiment: CCRIS mutagenicity studies
[1] = Test System: AMES SALMONELLA TYPHIMURIUM, Strain/Indicator: TA98, Metabolic Activation: NONE, Method: STANDARD PLATE
[2] = Test System: AMES SALMONELLA TYPHIMURIUM, Strain/Indicator: TA100, Metabolic Activation: NONE, Method: STANDARD PLATE
[3] = Test System: AMES SALMONELLA TYPHIMURIUM, Strain/Indicator: TA100, Metabolic Activation: RAT, LIVER, S-9, PHENOBARBITAL, Method: STANDARD PLATE
[4] = Test System: AMES SALMONELLA TYPHIMURIUM, Strain/Indicator: TA1535, Metabolic Activation: NONE, Method: STANDARD PLATE
[5] = Test System: AMES SALMONELLA TYPHIMURIUM, Strain/Indicator: TA1537, Metabolic Activation: NONE, Method: STANDARD PLATE
[6] = Test System: AMES SALMONELLA TYPHIMURIUM, Strain/Indicator: TA1538, Metabolic Activation: NONE, Method: STANDARD PLATE

Structure (SMILES): CCOC(=O)COc1ccc2c(=O)cc(-c3ccccc3)oc2c1
- mutagenic call [1]: inactive; negative
- mutagenic call (Test System: AMES SALMONELLA TYPHIMURIUM, Strain/Indicator: TA98, Metabolic Activation: RAT, LIVER, S-9, PHENOBARBITAL, Method: STANDARD PLATE): inactive; negative
- mutagenic call [2]: inactive; negative
- mutagenic call [3]: inactive; negative
- mutagenic call [4]: inactive; negative
- mutagenic call (Test System: AMES SALMONELLA TYPHIMURIUM, Strain/Indicator: TA1535, Metabolic Activation: RAT, LIVER, S-9, PHENOBARBITAL, Method: STANDARD PLATE): inactive; negative
- mutagenic call [5]: inactive; negative
- mutagenic call (Test System: AMES SALMONELLA TYPHIMURIUM, Strain/Indicator: TA1537, Metabolic Activation: RAT, LIVER, S-9, PHENOBARBITAL, Method: STANDARD PLATE): inactive; negative
- mutagenic call [6]: inactive; negative
- mutagenic call (Test System: AMES SALMONELLA TYPHIMURIUM, Strain/Indicator: TA1538, Metabolic Activation: RAT, LIVER, S-9, PHENOBARBITAL, Method: STANDARD PLATE): inactive; negative

Structure (SMILES): CSCCC(=O)N1[C@@H](c2ccccc2O)SC[C@H]1C(=O)O
- mutagenic call [1]: inactive; negative
- mutagenic call [2]: inactive; negative
- mutagenic call [4]: inactive; negative
- mutagenic call [5]: inactive; negative
- mutagenic call [6]: inactive; negative
- mutagenic call (Test System: E. COLI, Strain/Indicator: WP2, Metabolic Activation: NONE, Method: STANDARD PLATE): inactive; negative
- mutagenic call (Test System: E. COLI, Strain/Indicator: WP2 UVRA, Metabolic Activation: NONE, Method: STANDARD PLATE): inactive; negative

Structure (SMILES): OC(CCl)CCl
- mutagenic call (Test System: AMES SALMONELLA TYPHIMURIUM, Strain/Indicator: TA97, Metabolic Activation: HAMSTER, LIVER, S-9, AROCLOR 1254 (10%), Method: PREINCUBATION): active; positive
- mutagenic call (Test System: AMES SALMONELLA TYPHIMURIUM, Strain/Indicator: TA97, Metabolic Activation: NONE, Method: PREINCUBATION): inactive; negative
- mutagenic call (Test System: AMES SALMONELLA TYPHIMURIUM, Strain/Indicator: TA97, Metabolic Activation: RAT, LIVER, S-9, AROCLOR 1254 (10%), Method: PREINCUBATION): inactive; negative
- mutagenic call (Test System: AMES SALMONELLA TYPHIMURIUM, Strain/Indicator: TA98, Metabolic Activation: HAMSTER, LIVER, S-9, AROCLOR 1254 (10%), Method: PREINCUBATION): active; positive
- mutagenic call (Test System: AMES SALMONELLA TYPHIMURIUM, Strain/Indicator: TA98, Metabolic Activation: NONE, Method: PREINCUBATION): inactive; negative
- mutagenic call (Test System: AMES SALMONELLA TYPHIMURIUM, Strain/Indicator: TA98, Metabolic Activation: RAT, LIVER, S-9, AROCLOR 1254 (10%), Method: PREINCUBATION): inactive; negative
- mutagenic call (Test System: AMES SALMONELLA TYPHIMURIUM, Strain/Indicator: TA100, Metabolic Activation: ADH AND NAD+ (5 OR 50 µL), Method: PREINCUBATION): active; positive
- mutagenic call (Test System: AMES SALMONELLA TYPHIMURIUM, Strain/Indicator: TA100, Metabolic Activation: HAMSTER, LIVER, S-9, AROCLOR 1254 (10%), Method: PREINCUBATION): active; positive
- mutagenic call (Test System: AMES SALMONELLA TYPHIMURIUM, Strain/Indicator: TA100, Metabolic Activation: MOUSE, LIVER, S-9, PHENOBARBITAL, Method: STANDARD PLATE): active; positive
- mutagenic call (Test System: AMES SALMONELLA TYPHIMURIUM, Strain/Indicator: TA100, Metabolic Activation: NONE, Method: PREINCUBATION): active; positive
- mutagenic call [2]: active; positive
- mutagenic call (Test System: AMES SALMONELLA TYPHIMURIUM, Strain/Indicator: TA100, Metabolic Activation: RAT, LIVER, S-9, AROCLOR 1254 (10%), Method: PREINCUBATION): active; positive
- mutagenic call (Test System: AMES SALMONELLA TYPHIMURIUM, Strain/Indicator: TA100, Metabolic Activation: RAT, LIVER, S-9, AROCLOR 1254 (NAD+), Method: PREINCUBATION): active; positive
- mutagenic call (Test System: AMES SALMONELLA TYPHIMURIUM, Strain/Indicator: TA100, Metabolic Activation: RAT, LIVER, S-9, AROCLOR 1254 (NADP+), Method: PREINCUBATION): active; positive
- mutagenic call (Test System: AMES SALMONELLA TYPHIMURIUM, Strain/Indicator: TA100, Metabolic Activation: RAT, LIVER, S-9, PCB, Method: STANDARD PLATE): active; positive
- mutagenic call [3]: active; positive
- mutagenic call (Test System: AMES SALMONELLA TYPHIMURIUM, Strain/Indicator: TA1535, Metabolic Activation: ADH AND NAD+ (50 µL), Method: PREINCUBATION): active; positive
- mutagenic call (Test System: AMES SALMONELLA TYPHIMURIUM, Strain/Indicator: TA1535, Metabolic Activation: HAMSTER, LIVER, S-9, AROCLOR 1254 (10%), Method: PREINCUBATION): active; positive
- mutagenic call (Test System: AMES SALMONELLA TYPHIMURIUM, Strain/Indicator: TA1535, Metabolic Activation: NONE, Method: PREINCUBATION): active; positive
- mutagenic call [4]: active; positive
- mutagenic call (Test System: AMES SALMONELLA TYPHIMURIUM, Strain/Indicator: TA1535, Metabolic Activation: RAT, LIVER, S-9, AROCLOR 1254 (10%), Method: PREINCUBATION): active; positive
- mutagenic call (Test System: AMES SALMONELLA TYPHIMURIUM, Strain/Indicator: TA1535, Metabolic Activation: RAT, LIVER, S-9, AROCLOR 1254 (ADH AND NAD+), Method: PREINCUBATION): active; positive
- mutagenic call (Test System: AMES SALMONELLA TYPHIMURIUM, Strain/Indicator: TA1535, Metabolic Activation: RAT, LIVER, S-9, AROCLOR 1254 (NADP+), Method: PREINCUBATION): active; positive
- mutagenic call (Test System: AMES SALMONELLA TYPHIMURIUM, Strain/Indicator: TA1535, Metabolic Activation: RAT, LIVER, S-9, PCB, AROCLOR 1254, Method: STANDARD PLATE): active; positive

Structure (SMILES): Nc1c2cc([N+](=O)[O-])ccc2nc2ccc([N+](=O)[O-])cc12
- mutagenic call (Test System: AMES SALMONELLA TYPHIMURIUM, Strain/Indicator: TA1537, Metabolic Activation: NONE): active; positive

Structure (SMILES): CC(=O)[C@]1(O)Cc2c(O)c3c(c(O)c2[C@@H](O)C1)C(=O)c1c(O)cccc1C3=O
- mutagenic call [1]: active; positive
- mutagenic call (Test System: AMES SALMONELLA TYPHIMURIUM, Strain/Indicator: TA98, Metabolic Activation: RAT, LIVER, S-9, AROCLOR 1254, Method: STANDARD PLATE): active; positive
- mutagenic call [2]: inactive; negative
- mutagenic call [6]: inactive; negative

Structure (SMILES): O=C(O)c1cn(C2CC2)c2cc(N3CCNCC3)c(F)cc2c1=O
- mutagenic call (End Point: In vitro micronucleus, Test System: WTK-1 human lymphoma cells, Metabolic Activation: None): inactive; negative
- mutagenic call (Test System: AMES SALMONELLA TYPHIMURIUM, Strain/Indicator: HISC3076, Metabolic Activation: NONE, Method: STANDARD PLATE): inactive; negative
- mutagenic call (Test System: AMES SALMONELLA TYPHIMURIUM, Strain/Indicator: HISD3052, Metabolic Activation: NONE, Method: STANDARD PLATE): active; positive
- mutagenic call (Test System: AMES SALMONELLA TYPHIMURIUM, Strain/Indicator: HISG428, Metabolic Activation: NONE, Method: STANDARD PLATE): inactive; negative
- mutagenic call (Test System: AMES SALMONELLA TYPHIMURIUM, Strain/Indicator: TA92, Metabolic Activation: NONE, Method: STANDARD PLATE): active; positive
- mutagenic call (Test System: AMES SALMONELLA TYPHIMURIUM, Strain/Indicator: TA94, Metabolic Activation: NONE, Method: STANDARD PLATE): active; positive
- mutagenic call (Test System: AMES SALMONELLA TYPHIMURIUM, Strain/Indicator: TA102, Metabolic Activation: NONE, Method: STANDARD PLATE): active; positive
- mutagenic call (Test System: AMES SALMONELLA TYPHIMURIUM, Strain/Indicator: TA103, Metabolic Activation: NONE, Method: STANDARD PLATE): active; positive
- mutagenic call (Test System: AMES SALMONELLA TYPHIMURIUM, Strain/Indicator: TA104, Metabolic Activation: NONE, Method: STANDARD PLATE): inactive; negative
- mutagenic call (Test System: AMES SALMONELLA TYPHIMURIUM, Strain/Indicator: TA2425, Metabolic Activation: NONE, Method: STANDARD PLATE): active; positive
- mutagenic call (Test System: AMES SALMONELLA TYPHIMURIUM, Strain/Indicator: TA2638, Metabolic Activation: NONE, Method: STANDARD PLATE): active; positive
- mutagenic call (Test System: AMES SALMONELLA TYPHIMURIUM, Strain/Indicator: TA2661, Metabolic Activation: NONE, Method: STANDARD PLATE): inactive; negative
- mutagenic call (Test System: AMES SALMONELLA TYPHIMURIUM, Strain/Indicator: TA2662, Metabolic Activation: NONE, Method: STANDARD PLATE): active; positive
- mutagenic call (Test System: AMES SALMONELLA TYPHIMURIUM, Strain/Indicator: TA2678, Metabolic Activation: NONE, Method: STANDARD PLATE): inactive; negative
- mutagenic call (Test System: CHINESE HAMSTER V-79, Strain/Indicator: V-79 (HPRT)/6-THIOGUANINE, Metabolic Activation: NONE): active; positive
- mutagenic call (Test System: MOUSE LYMPHOMA, Strain/Indicator: L5178Y (TK+/TK-), Metabolic Activation: NONE, Method: FLUCTUATION TEST): active; positive

Source: PubChem BioAssay AID1259407 (Chemical Carcinogenesis Research Information System (CCRIS), 2018)
